Where two headings read alike, the source gives them in different places. Some results are limits rather than exact numbers.

The values that follow come from patent US4663323A, “Tetrazole derivatives, anti-ulcer composition containing the same and method for treating ulcers” (Otsuka Pharmaceutical Co., Ltd., priority 1984, dated 1987).

Data set [1] in a line: Acute Toxicity. Particulars: rat, in vivo, po, male Wistar rats. The method, then:
The test compounds were orally administered to male Wistar rats, and the half lethal dose (LD50) was measured.

In data set [2] the test system is gastric juice secretion. In words: Shay rat pylorus ligation method (gastric juice secretion-inhibiting activity). Format: in vivo, male Wistar rats. Particulars: sc, 4 h, 100 mg/kg s.c., 30 min before pylorus ligation, measured 4 hours after ligation. The method, then:
The pharmacological activities of the compouns (I) were tested by a Shay rat pylorus ligation method (cf. H. Shay et al: Gastroenterol., Vol. 5, page 43, 1945) which is the most popular method for testing of gastric juice secretion-inhibiting activity. The test was carried out by using male Wistar rats, weighing about 170 g and fasting for 24 hours.
Test compounds were administered 30 minutes before the pylorus ligation in a dose of 100 mg/kg in subcutaneous route, and the volume, total acidity and/or pepsin activity of the gastric juice were measured 4 hours after the ligation. As a control, a saline solution was administered instead of the test compound. The inhibitory ratio (%) of the test compounds were calculated when the inhibitory activities of the control were counted as zero (0).
(§1) In the table, the inhibitory ratio (%) was evaluated as follows: […]

Data set [3] deals with Acetic Acid-Induced Ulcer. As to the kind of experiment: Acetic Acid-Induced Ulcer. Format: in vivo, Male Wistar rats. The settings on record: oral, twice a day for 12 days. On the procedure:
Male Wistar rats were used. Under anestherization, the abdomen of rats were opened to expose stomach, and then 30% aqueous acetic acid (0.015 ml) was injected below serous membrane which was located at boundary area of true gastric gland and pyloric glands and thereafter the abdomen was closed, by which an experimental ulcer was induced.
The test compound was orally administered in the dose as shown in Table 3 in the form of 0.5% CMC suspension or solution twice a day for 12 days after the acetic acid-induced ulcer was produced. As a control, only the solvent (CMC solution) was administered likewise.
After the reproduced mucous membrane was removed around the ulcers, the open area of ulcers was measured with a micrometer, and the sum of ulcer area was shown as ulcer index (UI). The inhibitory ratio (%) of acetic acid-induced ulcer of the test compounds was calculated in the same manner as in Pharmacological Test 2.
as §1

The test system of data set [4] is Stress Ulcer. In words: Stress Ulcer. Particulars: oral, 1×10^-3 mole in 0.5% CMC, before restraint and water dipping at 23° C. for 7 hours. Format: in vivo, male Wistar rats. The method, then: After male Wistar rats weighing about 170 g was fasted for 24 hours, the rats were restrained in a stress cage and dipped in water bath at 23° C. till chest of the animals. After 7 hours, the rats were killed and the stomach was isolated. Into the isolated stomach 10% formalin (8 ml) was poured and settled. The stomach was cut open at the greater curvature, and the length of each ulcer on the membrane was measured. Sum of the length of all ulcers was shown as ulcer index (UI). The test compound was orally administered to the rats before restraint in a stress cage in the form of 0.5% CMC suspension in a concentration of 1×10^-3 mole. As a control, only the solvent (CMC solution) was administered likewise.
The inhibitory ratio (%) of stress ulcer of the test compounds was calculated by the following equation: [formula]
as §1

Data set [5] deals with Indomethacin-Induced Ulcer. In words: Indomethacin-Induced Ulcer. Particulars: oral, 3×10^-4 mole in 0.5% CMC, 30 min before indomethacin 20 mg/kg s.c. Type of data set: in vivo, male Wistar rats. On the procedure:
After male Wistar rats weighing about 160 g was fasted for 24 hours, indomethacin was subcutaneously administered to the rats in a dose of 20 mg/kg in the form of a suspension in a mixture of 0.5% CMC and a small amount of Tween 80 (i.e. polyoxyethylene sorbitan monooleate). After 5 hours, the rats were killed and the stomach was isolated. Into the isolated stomach 10% formalin (8 ml) was poured and settled. The stomach was cut open at the greater curvature, and the length of each ulcer on the membrane was measured, based on which results the inhibitory ratio of the indomethacin-induced ulcer of the test compounds was calculated in the same manner as in Pharmacological Test 2. The test compound was orally administered to the rats in a concentration of 3×10^-4 mole in the form of 0.5% CMC suspension 30 minutes before the administration of indomethacin.
as §1

Where [6] appears, read: saline control = 0, read-out: Inhibitory ratio, Pepsin activity.
Setting [7] is: saline control = 0, read-out: Inhibitory ratio, Total acidity.
Where [8] appears, read: saline control = 0, read-out: Inhibitory ratio, Volume of gastric juice.

Regarding `CCN(C(=O)CCCSc1nnnn1C)C1CCCCC1` [Compound 2, N-Ethyl-N-cyclohexyl-4-(1-methyl-1,2,3,4-tetrazol-5-yl)thio-butyramide], the LD50 (as a rule, the dose expected to kill half of the subjects tested) in data set [1] was above 500 mg/kg. The inhibition in vivo at 100 mg/kg in data set [2] (setting [6]), in data set [2] (setting [7]) and in data set [2] (setting [8]) was above 50% in each case. Besides, the “Inhibitory ratio of acetic acid-induced ulcer” value in data set [3] (20 mg/kg.day) was “+ (30 to less than 60%)”.
Take `CN(C)c1ccc(NC(=O)CCCSc2nnnn2C)cc1` [Compound 7, N-[4-(N,N-dimethylamino)phenyl]-4-(1-methyl-1,2,3,4-tetrazol-5-yl)thio-butyramide]: the LD50 in data set [1] was above 500 mg/kg. For the same molecule, the “Inhibitory ratio of stress ulcer” value in data set [4] is “++ (more than 60%)”. Besides, the inhibition in vivo at 100 mg/kg was 10 to 50% in data set [2] (setting [6]), 10 to 50% in data set [2] (setting [7]) and above 50% in data set [2] (setting [8]).
In turn, `CCN(C(=O)CCCSc1nnnn1C)c1ccccc1` [Compound 9, N-Ethyl-N-phenyl-4-(1-methyl-1,2,3,4-tetrazol-5-yl)thio-butyramide] had an LD50 in data set [1] above 500 mg/kg. Moreover, the “Inhibitory ratio of acetic acid-induced ulcer” value in data set [3] (20 mg/kg.day) is on record as “+ (30 to less than 60%)”.
`CCn1nnnc1CSCCC(N)=O` [Compound 19, 3-(1-Ethyl-1,2,3,4-tetrazol-5-yl)methylthio-propionamide]: in data set [1], the LD50 is above 500 mg/kg. Besides, the “Inhibitory ratio of acetic acid-induced ulcer” value in data set [3] (3 × 10^-5 mole/kg.day) is on record as “+ (30 to less than 60%)”.
Consider `COc1ccc(CCNC(=O)CCCSc2nnnn2C)cc1OC` [Compound 26, N-[2-(3,4-Dimethoxyphenyl)ethyl]-4-(1-methyl-1,2,3,4-tetrazol-5-yl)thio-butyramide], for which the inhibition in vivo at 100 mg/kg in data set [2] (setting [6]) is below 10%; in data set [2] (setting [7]) it was 10 to 50%; in data set [2] (setting [8]), above 50%. The “Inhibitory ratio of acetic acid-induced ulcer” value in data set [3] (20 mg/kg.day) is recorded as “+ (30 to less than 60%)”.
On the same counts, the results for `CN(C)C(=O)CCCSc1nnnn1C` [Compound 28, N,N-Dimethyl-4-(1-methyl-1,2,3,4-tetrazol-5-yl)thio-butyramide] are 10 to 50%, above 50%, above 50% and “+ (30 to less than 60%)”.
On to `COC(=O)CCCSc1nnnn1C` [Compound 37, Methyl 4-(1-methyl-1,2,3,4-tetrazol-5-yl)-thio-butyrate], for which the inhibition in vivo at 100 mg/kg in data set [2] (setting [8]) fell in the range of 10 to 50%. Also, the “Inhibitory ratio of acetic acid-induced ulcer” value in data set [3] (20 mg/kg.day) is reported as “+ (30 to less than 60%)”.
Take `CN(Cc1cccs1)C(=O)CCCSc1nnnn1C` [Compound 39, N-Methyl-N-(2-thienylmethyl)-4-(1-methyl-1,2,3,4-tetrazol-5-yl)thio-butyramide]: the inhibition in vivo at 100 mg/kg in data set [2] (setting [8]) was above 50%. Also, the “Inhibitory ratio of indomethacin-induced ulcer” value in data set [5] is “+ (30 to less than 60%)”.
For `COC1CCC(NC(=O)CCCSc2nnnn2C)CC1` (stereo not shown) [Compound 45, N-(4-Methoxycyclohexyl)-4-(1-methyl-1,2,3,4-tetrazol-5-yl)thio-butyramide] the same measures were 10 to 50% and “++ (more than 60%)”.
Take `CCN(C(=O)CCCc1nnnn1-c1ccccc1)C1CCCCC1` [Compound 46, N-Ethyl-N-cyclohexyl-4-(1-phenyl-1,2,3,4-tetrazol-5-yl)butyramide]: the “Inhibitory ratio of stress ulcer” value in data set [4] is listed as “++ (more than 60%)”. For the same molecule, the inhibition in vivo at 100 mg/kg was below 10% in data set [2] (setting [6]), 10 to 50% in data set [2] (setting [7]) and 10 to 50% in data set [2] (setting [8]). The “Inhibitory ratio of indomethacin-induced ulcer” value in data set [5] is “++ (more than 60%)”.
Regarding `CCCCNC(=O)CCCCc1nnnn1-c1ccccc1` [Compound 47, N-(n-Butyl)-5-(1-phenyl-1,2,3,4-tetrazol-5-yl)valeramide], in data set [4], the “Inhibitory ratio of stress ulcer” value was “+ (30 to less than 60%)”. The “Inhibitory ratio of indomethacin-induced ulcer” value in data set [5] was “+ (30 to less than 60%)”.
`COc1ccc(NC(=O)CCCCc2nnnn2-c2ccccc2)cc1` [Compound 49, N-(4-Methoxyphenyl)-5-(1-phenyl-1,2,3,4-tetrazol-5-yl)valeramide]: the “Inhibitory ratio of stress ulcer” value in data set [4] is “+ (30 to less than 60%)”. In data set [5], the “Inhibitory ratio of indomethacin-induced ulcer” value was “+ (30 to less than 60%)”.
In the case of `CCCCN(C(=O)CCCSc1nnnn1C)C1CCCCC1` [Compound 55, N-Cyclohexyl-N-butyl-5-(1-methyl-1,2,3,4-tetrazol-5-yl)thio-butyramide], the “Inhibitory ratio of acetic acid-induced ulcer” value in data set [3] (20 mg/kg.day) is “+ (30 to less than 60%)”.
Consider “N,N-Dicyclohexyl-5-(1-methyl-1,2,3,4-tetrazol-5-yl)thio-butyramide [Compound 58]”, for which the “Inhibitory ratio of acetic acid-induced ulcer” value in data set [3] (20 mg/kg.day) is “+ (30 to less than 60%)”.
On the same count and under the same terms, the entry for “N-Ethyl-N-cyclooctyl-5-(1-methyl-1,2,3,4-tetrazol-5-yl)thio-butyramide [Compound 56]” is “+ (30 to less than 60%)”.
